ChEMBL document CHEMBL1201862, “PubChem BioAssay data set” (2004)
Calls of active or inactive are those of the source. Where a SMILES comes first, the peptide text is derived from it. [ ]: non-standard residue; d: D form. The star is where a group is joined. ξ: configuration not given here. ξNMe2Val = CC(C)C(C(=O)*)N(C)C; NMeV = CN[CH](C(=O)O)C(C)C; NHBn = c1ccc(CN*)cc1

Experiments:
[1] = Luminescence Cell-Based Dose Retest to Confirm Inhibitors of Cancer Stem Cells. [Related pubchem assays (depositor defined):AID2717, AID2721]; format: functional; conditions: Homo sapiens
[2] = test system: Streptococcus sp. 'group A'; test: Streptococcus pyogenes SK(-)GAS viability under kanamycin – luminescence, BacTiterGlo, confirmation, counter-screen for streptokinase expression inhibitor project, dose response (AID 1900); format: functional, organism-based
Streptococcus = test: GAS UMAA2166 growth inhibition – luminescence, BacTiterGlo, counter-screen for streptokinase expression inhibitor project, dose response (AID 1915); format: functional, organism-based;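 further: potency for reduction of bacterial viability or growth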
[3] = viability of uninfected HEp-2 cells – cell-based, HTS, cytotoxicity control for RSV inhibitor project, dose response (AID 2410); format: functional; conditions: human respiratory syncytial virus
[4] = reduced cellular PGC1a acetyl-lysine signal – cell-based, cherry-picked samples, dose response (AID 720514); format: functional;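 further: potency may reflect raised or lowered acetylation signal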
Streptokinase A = target: T1, Streptokinase A (Streptococcus pyogenes serotype M1, UniProt P10520); test: viability-normalized secreted streptokinase activity reduction – plasminogen activation absorbance, OD405, dose response (AID 1914); format: functional, Streptococcus pyogenes M1 GAS;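 further: secreted streptokinase activity via plasminogen activation per viability signal from cell pellet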
T1 sequence (P10520 whole entry): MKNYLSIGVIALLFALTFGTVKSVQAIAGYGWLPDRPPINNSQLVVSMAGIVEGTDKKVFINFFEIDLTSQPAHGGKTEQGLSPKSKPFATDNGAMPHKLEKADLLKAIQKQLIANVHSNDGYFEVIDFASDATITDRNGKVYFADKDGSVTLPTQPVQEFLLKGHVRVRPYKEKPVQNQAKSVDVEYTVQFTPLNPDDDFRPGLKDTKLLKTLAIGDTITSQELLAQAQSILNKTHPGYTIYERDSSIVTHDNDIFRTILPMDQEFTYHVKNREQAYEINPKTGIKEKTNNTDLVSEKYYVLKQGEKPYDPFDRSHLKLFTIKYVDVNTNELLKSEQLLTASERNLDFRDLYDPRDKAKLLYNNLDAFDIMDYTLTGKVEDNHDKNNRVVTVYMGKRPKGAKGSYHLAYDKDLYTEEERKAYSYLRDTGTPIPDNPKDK

[5] = HGIII-sPLA2 enzyme inhibition potency – biochemical, QFRET, IC50, dose response (AID 743457);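 further: green fluorescence rise as the enzyme cleaves BODIPY PC-A2 in liposomes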
[6] = target: T2, Nuclear receptor subfamily 0 group B member 1 (Homo sapiens, UniProt P51843); format: functional, cell-based;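 further: HEK293T cells transfected with SF-1 and DAX-1 plus StAR promoter luciferase reporter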
T2 sequence (P51843 whole entry): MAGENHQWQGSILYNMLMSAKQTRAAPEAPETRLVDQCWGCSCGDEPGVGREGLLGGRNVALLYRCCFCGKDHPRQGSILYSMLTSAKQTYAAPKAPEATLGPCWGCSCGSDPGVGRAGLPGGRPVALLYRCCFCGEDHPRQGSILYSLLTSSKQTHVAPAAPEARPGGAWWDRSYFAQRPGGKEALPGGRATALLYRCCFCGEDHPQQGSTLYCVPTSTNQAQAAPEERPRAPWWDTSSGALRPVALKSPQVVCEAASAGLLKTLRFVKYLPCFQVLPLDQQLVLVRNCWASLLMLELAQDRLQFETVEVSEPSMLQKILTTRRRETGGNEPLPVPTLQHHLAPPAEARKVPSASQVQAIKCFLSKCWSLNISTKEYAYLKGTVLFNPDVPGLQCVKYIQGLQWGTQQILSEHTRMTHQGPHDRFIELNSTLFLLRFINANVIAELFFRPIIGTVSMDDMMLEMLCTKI

cells = format: functional, cell-based
Beta-galactosidase = Beta-galactosidase (Escherichia coli, UniProt Q8VNN2); test: Dose response counterscreen for EBI2 assay utilizing the enzyme, b-galactosidase.; format: functional
[7] = target: T3, Methionyl-tRNA synthetase, putative (Trypanosoma brucei brucei, UniProt Q38C91); format: functional, Trypanosoma brucei brucei strain 927/4 GUTat10.1
T3 sequence (Q38C91 whole entry): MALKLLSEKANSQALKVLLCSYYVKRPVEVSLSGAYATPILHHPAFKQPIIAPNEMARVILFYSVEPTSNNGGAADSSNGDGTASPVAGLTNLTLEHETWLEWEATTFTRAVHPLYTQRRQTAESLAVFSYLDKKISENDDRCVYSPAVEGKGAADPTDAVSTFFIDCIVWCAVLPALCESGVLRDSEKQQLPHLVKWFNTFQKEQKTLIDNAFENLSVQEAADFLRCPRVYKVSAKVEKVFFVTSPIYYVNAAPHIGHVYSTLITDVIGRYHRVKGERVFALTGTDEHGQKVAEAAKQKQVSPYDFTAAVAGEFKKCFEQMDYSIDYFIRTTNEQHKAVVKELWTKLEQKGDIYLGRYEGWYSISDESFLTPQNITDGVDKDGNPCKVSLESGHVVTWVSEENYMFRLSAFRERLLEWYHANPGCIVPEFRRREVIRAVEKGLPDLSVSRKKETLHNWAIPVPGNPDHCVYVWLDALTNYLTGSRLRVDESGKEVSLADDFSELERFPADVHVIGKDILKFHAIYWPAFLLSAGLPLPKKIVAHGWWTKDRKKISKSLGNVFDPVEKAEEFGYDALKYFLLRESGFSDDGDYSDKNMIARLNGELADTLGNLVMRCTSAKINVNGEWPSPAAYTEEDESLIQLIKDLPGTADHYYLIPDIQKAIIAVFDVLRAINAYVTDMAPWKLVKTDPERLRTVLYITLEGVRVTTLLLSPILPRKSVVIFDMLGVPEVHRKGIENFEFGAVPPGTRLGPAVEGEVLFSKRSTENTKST

[8] = Counterscreen for inhibitors of Trypanosoma brucei methionyl tRNA synthetase (MetRS): Luminescence-based cell-based high throughput dose response assay to identify compounds that are cytotoxic to Jurkat human T lymphocyte cells.; format: functional
Caspase-6 = target: T4, Caspase-6 (Homo sapiens, UniProt P55212); test: inhibition of CASP6 peptide cleavage – biochemical, VEID-R110 fluorescence, cherry-pick, dose response (AID 720632)
T4 sequence (P55212 whole entry): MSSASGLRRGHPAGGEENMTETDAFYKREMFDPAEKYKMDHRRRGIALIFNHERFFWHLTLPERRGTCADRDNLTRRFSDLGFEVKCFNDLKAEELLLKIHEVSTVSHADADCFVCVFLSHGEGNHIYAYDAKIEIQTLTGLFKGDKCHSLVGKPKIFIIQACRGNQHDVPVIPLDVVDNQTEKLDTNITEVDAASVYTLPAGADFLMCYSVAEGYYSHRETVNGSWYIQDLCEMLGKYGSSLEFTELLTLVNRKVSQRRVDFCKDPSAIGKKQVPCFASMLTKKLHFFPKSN

[9] = target: T5, Long-chain-fatty-acid--AMP ligase FadD28 (Mycobacterium tuberculosis, UniProt P9WQ59); test: Fluorescence polarization aasay to screen for inhibitors that compete for the binding of FadD28 to a bisubstrate Measured in Biochemical System Using Plate Reader - 2147-01_Inhibitor_Dose_CherryPick_Activity.; format: functional, Mycobacterium tuberculosis H37Rv
T5 sequence (P9WQ59 whole entry): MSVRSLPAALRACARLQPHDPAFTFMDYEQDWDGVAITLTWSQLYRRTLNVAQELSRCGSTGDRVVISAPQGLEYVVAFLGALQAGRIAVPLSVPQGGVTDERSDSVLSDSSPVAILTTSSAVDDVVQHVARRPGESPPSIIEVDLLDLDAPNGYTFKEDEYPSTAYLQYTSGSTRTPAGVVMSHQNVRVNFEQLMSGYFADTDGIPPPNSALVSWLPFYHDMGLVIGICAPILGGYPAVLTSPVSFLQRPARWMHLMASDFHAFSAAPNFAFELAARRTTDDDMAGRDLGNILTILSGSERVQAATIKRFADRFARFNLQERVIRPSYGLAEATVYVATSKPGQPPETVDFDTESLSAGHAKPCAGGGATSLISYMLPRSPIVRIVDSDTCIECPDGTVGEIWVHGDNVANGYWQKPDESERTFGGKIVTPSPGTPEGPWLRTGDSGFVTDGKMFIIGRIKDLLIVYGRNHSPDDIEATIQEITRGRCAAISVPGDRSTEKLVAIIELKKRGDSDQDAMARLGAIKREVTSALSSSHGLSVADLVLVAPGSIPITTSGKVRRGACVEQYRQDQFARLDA

[10] = HIV-1 AD8 envelope cell-cell fusion blockers – cherry-pick, dose response (AID 652062); format: functional, cell-based;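 further: luciferase signal from cell-cell fusion driven by HIV-1 clade B AD8 Env; potency is for inhibitors of fusion seen as a drop in luminescence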
[11] = blockers of HIV-1 ZM109 envelope-driven cell-cell fusion – HeLa effector, CEM target cells, luciferase, cherry-pick, dose response (AID 652058); format: functional, cell-based;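 further: luciferase signal from HIV-1 Env mediated cell-cell fusion of effector and target cells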
[12] = blockers of HIV-1 envelope-mediated cell-cell fusion – cherry-pick, dose response (AID 652057); format: functional, cell-based
[13] = target: FAD-linked sulfhydryl oxidase ALR (Homo sapiens, UniProt P55789); test: ALR-catalysed DTT oxidation blockers – biochemical, H2O2 detection, luminescence, cherry-pick, dose response (AID 493248)
[14] = target: T6, Disintegrin and metalloproteinase domain-containing protein 17 (Homo sapiens, UniProt P78536); test: inhibition of ADAM17 substrate cleavage – biochemical, quenched FRET substrate, counter-screen for ADAM10 exosite inhibitor project, dose response (AID 743253)
[15] = inhibition of ADAM10 peptide cleavage – biochemical, FRET peptide substrate, recombinant human ADAM10, selectivity assay for ADAM17 exosite inhibitor project, dose response (AID 743259);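 further: ADAM10 enzyme cleaving a FRET peptide substrate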
[16] = target: T6, Disintegrin and metalloproteinase domain-containing protein 17; test: exosite inhibitors of ADAM17, dose response, biochemical (AID 743260)
[17] = potency of ADAM10 substrate cleavage blockers – biochemical, QFRET, dose response (AID 743254);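 further: ADAM10 enzyme with the DM2 quenched FRET peptide as substrate; EDANS fluorescence gain as the protease cuts the substrate; inhibitor potency against ADAM10 proteolytic activity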
Genome polyprotein = Genome polyprotein (dengue virus type 2, UniProt P29990); test: flavivirus cap methylation enzyme inhibition – biochemical, confirmation dose response, primary screen (AID 588689); format: functional
[18] = P. falciparum Dd2 growth inhibitors, dose response, SYBR Green, cherry-picked samples (AID 1159567); format: functional, cell-based
[19] = growth inhibition of yeast DHODH-expressing 3D7 parasites – SYBR Green, dry powder samples, dose response (AID 1159570); format: functional, cell-based;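 further: parasite growth measured after 72 hours of compound exposure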
[20] = Dd2 malaria parasite growth inhibition potency – SYBR Green, dry powder samples, dose response (AID 1159566); format: functional, cell-based;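 further: potency for growth inhibition with lower SYBR green DNA signal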
[21] = toxicity to human HepG2 hepatoma cells – cell-based, plate reader, dry powder samples, cytotoxicity control, dose response (AID 1159569); format: functional;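 further: inhibitor potency with signal falling toward the positive control level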
[22] = growth inhibition of PfATP4-mutant resistant parasites – NITD609-resistant line, SYBR Green, dry powder, dose response (AID 1159571); format: functional, cell-based;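 further: parasites synchronized at ring stage by sorbitol before testing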
[23] = rise of 2N DNA cells, HeLa – IC50, dose response (AID 1117349); format: functional, cell-based
[24] = rise of 4N DNA cells, HeLa – IC50, dose response (AID 1117351); format: functional, cell-based

Sequence of Beta-galactosidase (Q8VNN2 whole entry): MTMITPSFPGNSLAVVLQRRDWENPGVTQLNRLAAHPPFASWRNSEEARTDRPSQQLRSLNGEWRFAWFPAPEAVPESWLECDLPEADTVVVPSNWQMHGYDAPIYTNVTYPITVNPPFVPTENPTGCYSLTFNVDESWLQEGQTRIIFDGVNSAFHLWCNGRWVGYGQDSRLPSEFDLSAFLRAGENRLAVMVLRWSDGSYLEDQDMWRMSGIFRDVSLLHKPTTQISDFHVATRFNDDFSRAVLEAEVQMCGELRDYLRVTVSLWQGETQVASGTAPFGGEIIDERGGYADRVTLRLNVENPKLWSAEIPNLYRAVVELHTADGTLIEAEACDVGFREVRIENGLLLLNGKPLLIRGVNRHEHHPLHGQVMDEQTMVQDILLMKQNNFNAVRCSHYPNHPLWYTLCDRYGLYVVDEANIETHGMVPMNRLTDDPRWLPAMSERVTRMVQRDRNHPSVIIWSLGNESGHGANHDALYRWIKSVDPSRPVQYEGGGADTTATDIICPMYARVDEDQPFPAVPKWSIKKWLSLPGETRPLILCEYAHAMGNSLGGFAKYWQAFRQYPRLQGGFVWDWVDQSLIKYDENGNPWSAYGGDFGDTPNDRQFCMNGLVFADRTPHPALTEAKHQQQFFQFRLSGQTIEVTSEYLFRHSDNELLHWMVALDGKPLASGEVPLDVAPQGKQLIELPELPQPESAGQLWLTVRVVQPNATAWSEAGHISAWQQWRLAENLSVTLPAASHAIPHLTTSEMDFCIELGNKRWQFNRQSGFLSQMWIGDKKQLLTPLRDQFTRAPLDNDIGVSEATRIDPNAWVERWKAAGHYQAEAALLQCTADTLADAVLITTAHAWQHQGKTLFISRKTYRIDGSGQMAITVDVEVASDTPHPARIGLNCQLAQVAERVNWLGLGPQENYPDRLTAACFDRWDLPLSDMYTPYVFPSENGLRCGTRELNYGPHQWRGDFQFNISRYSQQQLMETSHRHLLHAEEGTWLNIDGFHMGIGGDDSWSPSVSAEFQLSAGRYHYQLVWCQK
Sequence of FAD-linked sulfhydryl oxidase ALR (P55789 whole entry, the tested form may be a part): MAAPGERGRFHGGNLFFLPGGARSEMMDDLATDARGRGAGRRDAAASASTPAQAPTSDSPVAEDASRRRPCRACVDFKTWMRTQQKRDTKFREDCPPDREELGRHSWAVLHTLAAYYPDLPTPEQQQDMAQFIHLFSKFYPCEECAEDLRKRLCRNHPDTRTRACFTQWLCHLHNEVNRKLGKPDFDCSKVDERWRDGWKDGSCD
T6 sequence (P78536 whole entry, the tested form may be a part): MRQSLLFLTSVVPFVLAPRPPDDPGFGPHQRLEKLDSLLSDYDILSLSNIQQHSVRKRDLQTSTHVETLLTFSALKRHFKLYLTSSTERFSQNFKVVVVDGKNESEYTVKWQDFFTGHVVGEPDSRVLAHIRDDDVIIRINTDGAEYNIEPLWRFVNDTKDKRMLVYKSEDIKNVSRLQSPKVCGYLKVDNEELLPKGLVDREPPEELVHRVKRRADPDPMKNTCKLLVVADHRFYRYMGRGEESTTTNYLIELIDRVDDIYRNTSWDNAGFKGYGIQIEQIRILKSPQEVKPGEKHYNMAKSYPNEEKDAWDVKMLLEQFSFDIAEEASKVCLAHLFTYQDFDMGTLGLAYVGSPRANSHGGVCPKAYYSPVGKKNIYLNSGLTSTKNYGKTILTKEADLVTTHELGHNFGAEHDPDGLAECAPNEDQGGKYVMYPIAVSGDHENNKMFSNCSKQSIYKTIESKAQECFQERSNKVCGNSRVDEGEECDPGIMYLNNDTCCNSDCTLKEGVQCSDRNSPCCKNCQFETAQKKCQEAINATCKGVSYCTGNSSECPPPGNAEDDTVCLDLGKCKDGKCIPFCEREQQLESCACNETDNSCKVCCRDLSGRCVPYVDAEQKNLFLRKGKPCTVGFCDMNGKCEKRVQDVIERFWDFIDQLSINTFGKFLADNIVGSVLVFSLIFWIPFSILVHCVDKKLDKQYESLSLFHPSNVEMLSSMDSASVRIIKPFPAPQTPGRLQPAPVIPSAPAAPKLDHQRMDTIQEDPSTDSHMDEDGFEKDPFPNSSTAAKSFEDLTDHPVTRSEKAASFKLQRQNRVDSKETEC
Sequence of Genome polyprotein (P29990 2492-3391 limits assumed): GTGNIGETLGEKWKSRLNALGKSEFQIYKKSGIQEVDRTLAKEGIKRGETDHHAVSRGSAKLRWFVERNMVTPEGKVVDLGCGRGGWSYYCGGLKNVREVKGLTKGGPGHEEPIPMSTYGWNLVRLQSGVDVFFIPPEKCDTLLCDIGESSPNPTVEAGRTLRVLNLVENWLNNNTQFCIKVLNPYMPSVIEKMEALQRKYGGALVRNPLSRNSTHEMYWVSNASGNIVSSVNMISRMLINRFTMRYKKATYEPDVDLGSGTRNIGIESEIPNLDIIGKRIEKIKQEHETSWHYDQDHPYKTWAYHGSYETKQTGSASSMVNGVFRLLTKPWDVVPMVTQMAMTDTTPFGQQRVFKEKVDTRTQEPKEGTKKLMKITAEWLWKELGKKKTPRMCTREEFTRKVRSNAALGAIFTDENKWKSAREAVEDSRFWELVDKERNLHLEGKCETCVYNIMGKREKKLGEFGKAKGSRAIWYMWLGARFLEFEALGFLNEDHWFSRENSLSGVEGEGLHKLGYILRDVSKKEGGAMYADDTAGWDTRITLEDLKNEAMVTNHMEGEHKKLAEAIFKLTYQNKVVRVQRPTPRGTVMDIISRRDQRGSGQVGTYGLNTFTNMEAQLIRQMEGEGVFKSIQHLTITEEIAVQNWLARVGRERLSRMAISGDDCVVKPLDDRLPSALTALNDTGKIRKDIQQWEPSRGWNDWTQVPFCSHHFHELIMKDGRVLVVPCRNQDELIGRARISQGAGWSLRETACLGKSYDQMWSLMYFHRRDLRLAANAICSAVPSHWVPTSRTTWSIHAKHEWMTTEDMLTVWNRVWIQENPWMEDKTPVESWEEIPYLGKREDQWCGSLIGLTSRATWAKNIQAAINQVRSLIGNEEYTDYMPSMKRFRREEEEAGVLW

## Oc1ccc(/C=N/Nc2nc(-c3ccc(Cl)cc3)cc(C(F)(F)F)n2)cc1
[1]
  AC50: 4.06 µM (active)
[2]
  EC50: 12.1 µM (active)
Streptococcus
  EC50: > 150 µM (not active)
[3]
  CC50: 13.4 µM (active)
[4]
  AC50: 31.7 µM (active)
Streptokinase A
  EC50: 16.3 µM (active)

## O=C(CNc1ccc(Cl)cc1)NNC(=S)NCc1ccccc1
[5]
  IC50: > 122 µM (inactive)

## CC(C)(C)OC(=O)N1CCC(C(=O)Nc2ccc3c(c2)CCC3)CC1
[6]
  IC50: > 67.5 µM (inactive)
cells
  IC50: > 67.5 µM (inactive)

## CC(C)Nc1ncnc2c1ncn2[C@H]1CN(Cc2ccc(Cl)cc2)C[C@@H](CO)O1
Beta-galactosidase
  IC50: > 80 µM (inactive)

## COc1cc(OC)c(OC)cc1/C=N/Nc1nc2ccccc2[nH]1
[7]
  IC50: 119 µM (inactive)
[8]
  IC50: 83.3 µM (inactive)

## O=C(CCc1nc(O)c2c3c(sc2n1)CCCC3)NCC(=O)Nc1ccccc1Br
Caspase-6
  AC50: 26.8 µM (active)

## CC(NC(=O)c1ccc2[nH]cnc2c1)c1ccccc1 (centres undefined)
[9]
  AC50: 22.7 µM (active)

## O=S(=O)(c1ccc(Cl)cc1)N1CCN(Cc2nc(O)c3ccc(Cl)cc3n2)CC1
Beta-galactosidase
  IC50: > 80 µM (inactive)

## Cc1c(Cl)c(C(=O)NN=C(S)Nc2ccc(F)cc2)nn1C
[5]
  IC50: > 122 µM (inactive)

## C[C@H](CO)N1C[C@H](C)[C@H](CN(C)S(=O)(=O)c2ccc(Cl)cc2)Oc2ccc(NC(=O)Nc3ccc4c(c3)OCO4)cc2C1=O
[10]
  AC50: 13.7 µM (active)
[11]
  AC50: 6.18 µM (active)
[12]
  AC50: 2.11 µM (active)

## CC(C)C(NC(=O)C(C(C)C)N(C)C)C(=O)N(C)C(C(=O)N1CCCC1C(=O)N1CCCC1C(=O)NCc1ccccc1)C(C)C (centres undefined) (ξNMe2Val-V[NMeV]PP-NHBn; configuration not given here)
[6]
  IC50: > 67.5 µM (inactive)
cells
  IC50: > 67.5 µM (inactive)

## Cc1cc(Nc2cccc(C(F)(F)F)c2)cc(=O)n1-c1cccc(C(F)(F)F)c1
[10]
  AC50: 9.49 µM (active)
[11]
  AC50: 1.85 µM (active)

## O=C(NO)c1ccc(OC(F)F)cc1
[13]
  AC50: 4.38 µM (active)
[14]
  IC50: 36.5 µM (inactive)
[15]
  IC50: 40.2 µM (inactive)
[16]
  IC50: 29.5 µM (inactive)
[17]
  IC50: 37 µM (inactive)

## O=C1C=C(c2ccc3ncccc3c2)C[C@@H](c2ccc(Cl)cc2)C1
Beta-galactosidase
  IC50: > 80 µM (inactive)

## O=C(O)c1ccc(Nc2nc3ccccc3nc2NS(=O)(=O)c2ccc(F)cc2)cc1
[13]
  AC50: > 100 µM (inactive)
Genome polyprotein
  IC50: 24.9 µM (active)
[9]
  AC50: 62.1 µM (active)

## Cc1ccc(S(=O)(=O)N2C[C@@H]3N[C@H](C2)[C@H]3c2ccc(-c3ccncc3)cc2)cc1
[18]
  AC50: 1.37 µM (active)
[19]
  AC50: 1.26 µM (active)
[20]
  AC50: 1.03 µM (active)
[21]
  AC50: 82.3 µM (active)
[22]
  AC50: 1.67 µM (active)

## CCCN(C)C[C@H]1Oc2ncc(C#Cc3ccc(F)cc3)cc2C(=O)N([C@@H](C)CO)C[C@H]1C
[18]
  AC50: 2.37 µM (active)
[19]
  AC50: 2.14 µM (active)
[20]
  AC50: 1.24 µM (active)
[21]
  AC50: 24.3 µM (active)
[22]
  AC50: 1.23 µM (active)

## Cc1ccc(Nc2nccc(N(C)c3ccc4c(C)n(C)nc4c3)n2)cc1S(N)(=O)=O [PAZOPANIB]
[23]
  IC50: > 10 µM (inactive)
[24]
  IC50: > 10 µM (inactive)
